The subject of one assay is Fibrinogen. Kind of assay: Fibrinogen concentration by the von Clauss clotting method in the 1-year open-label exenatide vs biphasic insulin aspart trial. The note with it: patients with type 2 diabetes. Type of assay: in vivo, human. As to the method: For test meal data, postprandial glucose incremental AUC0-4h is calculated at baseline and week 52.
Fibrinogen activity is measured by the von Clauss clotting method. By the von Clauss clotting method, thrombin is added to a test sample and the time until clotting is measured. Fibrinogen concentration is determined by comparing clotting time for the test sample to the clotting time of a standard curve for various reference plasmas.
Fibrinogen is measured at baseline, Week 16, Week 52, or at early termination of the study.

In assay [1] the test system is lipoprotein subclass particles (LDL, HDL, VLDL). Kind of assay: Lipoprotein subclass particle concentration and particle size by proton NMR in the 1-year open-label exenatide vs biphasic insulin aspart trial. Type of assay: in vivo, human. The note with it: change from baseline to endpoint. As to the method: Lipoprotein subclass particle concentrations and average particle diameters are measured using proton nuclear magnetic resonance spectroscopy.
The particle concentrations of different lipoprotein subclasses are obtained by measuring the amplitudes of the characteristic lipid methyl NMR signals. The signal amplitudes of various subclasses are extracted from the overall lipid methyl group signal with a spectral deconvolution algorithm (LipoScience, Inc.). See e.g., Festa. VLDL and LDL particle concentrations are given in nanomoles per liter. HDL particle concentrations are provided in micromoles per liter.
Average particle sizes (in nanometers diameter) are computed as the sum of the diameter of the particle subclass multiplied by the relative mass percentage of the subclass as estimated from the amplitude of its methyl NMR signal.
Particle concentrations and sizes are compared before and after administration of an exendin or exendin agonist. See e.g., Table 1.

Where [2] appears, read: patients with type 2 diabetes, fasting.
Where [3] appears, read: particle concentration, patients with type 2 diabetes.

These results are taken from patent US8501693B2, “Use of exendins and exendin agonists and GLP-1 receptor agonists for altering the concentration of fibrinogen” (Amylin Pharmaceuticals, LLC, priority 2006, dated 2013).

Take biphasic insulin aspart 30/70: in the assay with Fibrinogen (Baseline (before treatment) of the treatment group), the “Fibrinogen level, Mean, Baseline” value is 4.22 g/L. Also, the “Fibrinogen level, Mean, Endpoint (LOCF)” value in the assay on Fibrinogen (Endpoint, last post-baseline measurement carried forward (Week 16, Week 52 or early termination)) is reported as 4.16 g/L. For the same substance, the “LDL Particle Size Δ mean (SEM)” value in assay [1] (patients with type 2 diabetes inadequately controlled by sulphonylurea and metformin, fasting) is “+0.11 (0.12) p = .356 nm”. Also, in assay [1] (setting [2]), the “HDL Particle Size Δ mean (SEM)” value is given as “+0.04 (0.05) p = .391 nm” and the “VLDL Particle Size Δ mean (SEM)” value is reported as −1.6 (2.2) p = .482 nm. In addition, in assay [1] (setting [3]), the “Large HDL Δ mean (SEM)” value is “+1.0 (0.4) p = .014 μmol/L”, the “Large LDL Δ mean (SEM)” value is “+37.7 (32.8) p = .258 nmol/L”, the “Small LDL Δ mean (SEM)” value is given as −25.8 (81.2) p = .753 nmol/L and the “Small VLDL Δ mean (SEM)” value is on record as “+8.5 (4.2) p = .049 nmol/L”. In assay [1] (setting [3]), the “Total HDL Δ mean (SEM)” value was “+2.5 (0.9) p = .012 μmol/L”, the “Total LDL Δ mean (SEM)” value is “+5.0 (75) p = .947 nmol/L”, the “Total VLDL Δ mean (SEM)” value is “+12.9 (6.6) p = .056 nmol/L” and the “Very Small LDL Δ mean (SEM)” value was −17.0 (64.6) p = .794 nmol/L.
